Data taken from patent publication US20070093476A1, “Novel compounds and their use in medicine,as antidiabetic and hypolipidemic agents, process for their preparation and pharmaceutical compositions containing them” (priority 2003, published 2007).
Structures can show the parent of a compound that is named as a salt. Where two headings read alike, the source gives them in different places.

Columns and labels:
Swiss albino mice = assay: Plasma triglyceride lowering activity in Swiss albino mice; assay type: in vivo
Description: b) Plasma Triglyceride and Total Cholesterol Lowering Activity in Swiss Albino Mice and Guinea Pigs
Male Swiss albino mice (SAM) and male Guinea pigs are obtained from NIN and housed in DRF animal house. All these animals are maintained under 12 hour light and dark cycle at 25±1° C. Animals are given standard laboratory chow (NIN, Hyderabad, India) and water, ad libitum. SAM of 20-25 g body weight range and Guinea pigs of 500-700 g body weight range are used (Oliver, P., Plancke, M. O., Marzin, D., Clavey, V., Sauzieres, J and Fruchart, J. C. Effects of fenofibrate, gemfibrozil and nicotinic acid on plasma lipoprotein levels in normal and hyperlipidemic mice. Atherosclerosis. 1988. 70 : 107-114).
The test compounds can be administered orally to Swiss albino mice at 0.3 to 30 mg/kg/day dose for 6 days. Control mice are treated with vehicle (0.25% Carboxymethylcellulose; dose 10 ml/kg). The test compounds are administered orally to Guinea pigs at 0.3 to 30 mg/kg/day dose for 6 days. Control animals are treated with vehicle (0.25% Carboxymethylcellulose; dose 5 ml/kg).
The blood samples can be collected in fed state 1 hour after drug administration on 0 and 6 day of treatment. The blood can be collected from the retro-orbital sinus through heparinised capillary in EDTA containing tubes. After centrifugation, plasma sample was separated for triglyceride and total cholesterol (Wieland, O. Methods of Enzymatic analysis. Bergermeyer, H. O., Ed., 1963. 211-214; Trinder, P. Ann. Clin. Biochem. 1969. 6 : 24-27). Measurement of plasma triglyceride, total cholesterol and HDL are done using commercial kits (Dr. Reddy's Diagnostic Division, Hyderabad, India).

hPPARγ1 = molecular target: T1, hPPARγ1 (Homo sapiens, UniProt P37231); assay: Determination of hPPARγ activity (GAL4-LBD luciferase reporter transactivation in HEK-293 cells); assay type: cell-based; conditions: 1 μM compound
T1 construct: expressed in transfected cells; host or cells: HEK-293
T1 sequence (P37231 238-503 limits assumed): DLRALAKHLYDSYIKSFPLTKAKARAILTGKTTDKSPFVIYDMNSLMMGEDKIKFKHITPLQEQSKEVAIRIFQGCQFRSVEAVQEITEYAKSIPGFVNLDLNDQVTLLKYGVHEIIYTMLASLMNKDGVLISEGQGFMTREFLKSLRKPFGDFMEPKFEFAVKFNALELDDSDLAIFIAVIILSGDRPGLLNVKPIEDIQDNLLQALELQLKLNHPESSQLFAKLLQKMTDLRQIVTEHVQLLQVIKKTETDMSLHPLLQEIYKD
Description: b) Determination of hPPARγ Activity
Ligand binding domain of hPPARγ1 is fused to DNA binding domain of Yeast transcription factor GAL4 in eucaryotic expression vector. Using lipofectamine (Gibco BRL, USA) as transfecting reagent HEK-293 cells are transfected with this plasmid and a reporter plasmid harboring the luciferase gene driven by a GAL4 specific promoter. Compound can be added at 1 μM concentration after 48 hrs of transfection and incubated overnight Luciferase activity as a function of drug binding/activation capacity of PPARγ1 will be measured using Packard Luclite kit (Packard, USA) in Packard Top Count (Ivan Sadowski, Brendan Bell, Peter Broag and Melvyn Hollis. Gene. 1992. 118 : 137-141; Guide to Eukaryotic Transfections with Cationic Lipid Reagents. Life Technologies, GIBCO BRL, USA).

hPPARα = molecular target: T2, hPPARα (Homo sapiens, UniProt Q07869); assay: Determination of hPPARα activity (GAL4-LBD luciferase reporter transactivation in HEK-293 cells); assay type: cell-based; conditions: 50 μM compound
T2 construct: expressed in transfected cells; host or cells: HEK-293
T2 sequence (Q07869 239-466 limits assumed): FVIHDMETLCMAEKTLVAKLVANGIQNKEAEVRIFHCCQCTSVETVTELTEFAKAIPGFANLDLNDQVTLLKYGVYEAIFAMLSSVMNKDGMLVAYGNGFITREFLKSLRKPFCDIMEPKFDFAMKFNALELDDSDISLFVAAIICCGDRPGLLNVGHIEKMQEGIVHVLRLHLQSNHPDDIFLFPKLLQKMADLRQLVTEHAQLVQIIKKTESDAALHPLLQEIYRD
Description: a) Determination of hPPARα Activity Ligand binding domain of hPPARα was fused to […] of Yeast transcription factor GAL4 in eucaryotic expression vector. Using superfect (Qiagen, Germany) as transfecting reagent HEK-293 cells are transfected with this plasmid and a reporter plasmid harboring the luciferase gene driven by a GAL4 specific promoter. Compound can be added at different concentrations after 42 hrs of transfection and incubated overnight. Luciferase activity as a function of compound binding/activation capacity of PPARα will be measured using Packard Luclite kit (Packard, USA) in Top Count (Ivan Sadowski, Brendan Bell, Peter Broag and Melvyn Hollis. Gene. 1992. 118 : 137-141; Superfect Transfection Reagent Handbook. February 1997. Qiagen, Germany).

[1] = Swiss albino mice, 3 mg/kg/d oral, 6 days
[2] = Mus musculus, 144 h, Swiss albino mice, 3 mg/kg/d oral, 6 days, read-out: % of Reduction in Triglyceride
[3] = Mus musculus, po, 144 h, read-out: % of Reduction in Triglyceride

Molecule	% of Reduction in Triglyceride (Swiss albino mice; [1]) [%]	PPAR fold activation, PPAR γ at 1 μM concentration (hPPARγ1) [fold]	PPAR fold activation, PPAR α at 50 μM concentration (hPPARα) [fold]	melting point [°C]	inhibition in vivo at 3 mg/kg/day (Swiss albino mice; [2]) [%]	inhibition in vivo at 10 mg/kg/day (Swiss albino mice; [3]) [%]	inhibition in vivo at 3 mg/kg/day (Swiss albino mice; [3]) [%]
2-Methyl-2-[3-{3-(3-methanesulfonyloxyphenoxy)propyloxy}phenoxy]propanoic acid Arginine salt [Example 61]	51	–	–	–	–	–	–
2-Methyl-2-[3-{3-(4-methanesulfonyloxyphenoxy)propyloxy}phenoxy]propanoic acid Arginine salt [Example 66]	71	–	–	–	–	–	–
CCOC(=O)[C@H](Cc1ccc(NCc2ccc3cc(OS(C)(=O)=O)ccc3c2)cc1)OC [Example 1, (S)-Ethyl 2-methoxy-3-[4-(6-methanesulfonyloxynapth-2-ylmethylamino)phenyl]propanoate]	–	9.2	2.7	94 to 96	–	–	–
CCOC(=O)C(Cc1ccc(NCc2ccc3cc(OS(C)(=O)=O)ccc3c2)cc1)OCC (centres unmarked) [Example 2, Ethyl 2-ethoxy-3-[4-{6-methanesulfonyloxynapth-2-ylmethylamino}phenyl]propanoate]	–	15.5	3.5	118 to 120	50	–	–
CCOC(Cc1ccc(NCc2ccc3cc(OS(C)(=O)=O)ccc3c2)cc1)C(=O)O (centres unmarked) [Example 24, 2-Ethoxy-3-[4-{6-methanesulfonyloxynapth-2-ylmethylamino}phenyl]propanoic acid]	–	4.5	7.4	168 to 170	46	–	–
CC(C)(Oc1ccc(NCc2ccc3cc(OS(C)(=O)=O)ccc3c2)cc1)C(=O)O [Example 26, 2-Methyl-2-[4-(6-methanesulfonyloxynapth-2-ylmethylamino}phenoxy]propanoic acid]	–	–	–	182 to 184	10	–	–
CC(C)(Oc1ccc(OCc2ccc3cc(OS(C)(=O)=O)ccc3c2)cc1)C(=O)O [Example 37, 2-Methyl-2-[4-{6-methanesulfonyloxynapth-2-ylmethoxy}phenoxy]propanoic acid]	–	–	–	147 to 149	30	–	–
CCOC(CCCc1ccc(NCc2ccc3cc(OS(C)(=O)=O)ccc3c2)cc1)C(=O)O (centres unmarked) [Example 46, 2-Ethoxy-5-[4-{6-methanesulfonyloxynapth-2-ylmethylamino}phenyl]pentatonic acid Arginine salt]	–	2.1	3.2	–	–	12	–
CCOC(Cc1ccc(NCCCn2ccc3ccccc32)cc1)C(=O)O (centres unmarked) [Example 47, 2-Ethoxy-3-[4-{3-(indol-1-yl)propylamino}phenyl]propanoic acid Arginine salt]	–	6.7	4.8	–	–	–	60
CO[C@@H](Cc1ccc(NCCCn2ccc3ccccc32)cc1)C(=O)O [Example 48, (S)-2-Methoxy-3-[4-{3-(indol-1-yl)propylamino}phenyl]propanoic acid Arginine salt]	–	6.1	4.6	–	–	–	27
CCO[C@@H](Cc1ccc(NCCCn2ccc3cc(OS(C)(=O)=O)ccc32)cc1)C(=O)O [Example 49, (S)-2-Ethoxy-3-[4-{3-(5-methanesulfonyloxyindol-1-yl)propylamino}phenyl]propanoic acid Arginine salt]	–	1.5	3.6	–	–	–	54
CO[C@@H](Cc1ccc(NCCCn2ccc3cc(OS(C)(=O)=O)ccc32)cc1)C(=O)O [Example 50, (S)-2-Methoxy-3-[4-{3-(5-methanesulfonyloxyindol-1-yl)propylamino}phenyl]propanoic acid Arginine salt]	–	1.4	3.5	–	–	–	31
CCOC(Cc1ccc(NCCCN2CCc3ccccc32)cc1)C(=O)O (centres unmarked) [Example 52, 2-Ethoxy-3-[4-{3-2,3-dihydroindol-1-yl)propylamino}phenyl]propanoic acid Arginine salt]	–	6	4.0	–	–	–	–
CCOC(Cc1ccc(NCC2CCc3cc(OS(C)(=O)=O)ccc3C2)cc1)C(=O)O (centres unmarked) [Example 53, 2-Ethoxy-3-[4-{(6-methanesulfonyloxy-1,2,3,4-tetrahydronapth-2-yl)methylamino}phenyl]propanoic acid Arginine salt]	–	5.8	3.7	–	–	–	79
CCOC(Cc1ccc(NCCCC2CCc3cc(OS(C)(=O)=O)ccc3C2)cc1)C(=O)O (centres unmarked) [Example 54, 2-Ethoxy-3-[4-{3-(6-methanesulfonyloxy-1,2,3,4-tetrahydronapth-2-yl)propylamino}phenyl]propanoic acid Arginine salt]	–	–	–	–	–	–	43
CCOC(Cc1ccc(NCCCN2CCCc3ccccc32)cc1)C(=O)O (centres unmarked) [Example 55, 2-Ethoxy-3-[4-{3-1,2,3,4-tetrahydroquinolyn-1-yl)propylamino}phenyl]propanoic acid Arginine salt]	–	11.9	3.8	–	–	–	60
